pEC50: −log10 of the molar value.
How the values were obtained:
Assay in all cases: Multiparameter cell cycle DNA content assay (flow cytometry)
Assay type in all cases: cell-based
MOLT-4 = settings: Homo sapiens; MOLT-4, T cell leukemia; 48 hours without compound withdrawal; read-out: EC50 (+4N DNA content endpoint)
Protocol: (§1) Tumor cells were seeded in a 300 μL deep 96-well plate in 150 μL of appropriate complete media at a density of 100,000 cells/well. The cells were treated with AMG 900 (10-point dose range 0.156 to 0.0003 μM) with a final DMSO concentration of 0.2% in media. Two hours prior to harvest time, the cells were pulsed with BrdU at the final concentration of 1:100 in media. After 48 hours, 100 μL of media was removed from each well with a multi-well pipetter. Then the cells were transferred to PCR tube strips in 200 μL of media. The cells were centrifuged at 2000 rpm at 18° C. for 4 minutes and the supernatant was aspirated. The cells were then fixed in 200 μL of ice cold 90% methanol and stored at −20° C. for at least 24 hours before antibody and DNA staining. Fixed cells were centrifuged at 2000 rpm for 4 minutes to remove 90% methanol. Cells were washed with 200 μL of wash buffer and then treated with 100 μL acid buffer at room temperature for 1 hour in the dark. Cells were washed twice with 200 μL wash buffer (until pH was 7.0, confirmed with pH paper). Cells were incubated with an anti-BrdU-Alexa 647 (3 μg/mL) and anti-Caspase 3-FITC (20 μ/well) antibody cocktail in wash buffer for 2 hours at room temperature in the dark. Stained cells were centrifuged and washed with 200 μL of wash buffer. Cells were counterstained with 200 μL of propidium iodide (PI) overnight at 4° C. in the dark. Data was acquired and analyzed by flow cytometer (LSRII). A threshold gate was applied according to DNA content, BrdU, and Caspase-3 positive/negative populations based on DMSO control and low/high drug-treated groups. The data was represented as a percentage of SubG1 DNA content, 4N+ DNA content, BrdU, and Caspase-3 cleavage positive populations. The concentration-response curves and EC50 values were calculated using a 4-parameter equation.

Jurkat = settings: Homo sapiens, T cell leukemia, 48 hours without compound withdrawal, read-out: EC50 (+4N DNA content endpoint)
Protocol: as §1

RPMI-8226 = settings: Homo sapiens; RPMI-8226, Multiple Myeloma; 48 hours without compound withdrawal; read-out: EC50 (+4N DNA content endpoint)
Protocol: as §1

U266-B1 = settings: Homo sapiens; U266-B1, Multiple Myeloma; 48 hours without compound withdrawal; read-out: EC50 (+4N DNA content endpoint)
Protocol: as §1

K562 = settings: Homo sapiens; K562, Chronic myeloid leukemia; 48 hours without compound withdrawal; read-out: EC50 (+4N DNA content endpoint)
Protocol: as §1

HL-60 = settings: Homo sapiens; HL-60, Promyelocytic leukemia; 48 hours without compound withdrawal; read-out: EC50 (+4N DNA content endpoint)
Protocol: as §1

- pEC50 (MOLT-4): 8.70
- pEC50 (Jurkat): 9.00
- pEC50 (RPMI-8226): 8.70
- pEC50 (U266-B1): 8.70
- pEC50 (K562): 9.00
- pEC50 (HL-60): 8.70
Structure (SMILES): Cc1csc(-c2nnc(Nc3ccc(Oc4ncccc4-c4ccnc(N)n4)cc3)c3ccccc23)c1 [AMG 900, N-(4-((3-(2-amino-4-pyrimidinyl)-2-pyridinyl)oxy)phenyl)-4-(4-methyl-2-thienyl)-1-phthalazinamine]

Source: patent publication US20120028917A1, “Use Of N-(4-((3-(2-Amino-4-Pyrimidinyl)-2-Pyridinyl)Oxy)Phenyl)-4-(4-Methyl-2-Thienyl)-1-Phthalazinamine In The Treatment Of Antimitotic Agent Resistant Cancer” (Amgen Inc., priority 2009, published 2012)
